In patent US20140303256A1 (UNIVERSITY INDUSTRY COOPERATION GROUP OF KYUNG HEE …, priority 2011, published 2014):

Columns and labels:
[1] = tested on: NMDA receptor; details: previous report; cited from earlier work
[2] = tested on: MMP-2; test: MMP-2 activation by gelatin zymography of spinal cord tissue after spinal cord injury; format: in vivo, mouse; details: spinal cord tissue 1 day (peak time) after spinal cord injury, vs saline
Description: (§1) Adult male C57BL/6 mice (20˜30 g) were anaesthetized with chloral hydrate (500 mg/kg) and T8˜T10 were exposed. The exposed T9 was subjected to contusion injury (by dropping a weight at the impact strength of 40 kd) using PSI (Precision Systems and Instrumentation) impactor. […] Louis, Mo.) dissolved in saline was immediately administered into injured mice via intraperitoneal injection (200 mg/kg). Saline was administered for the control. The administration was performed once a day and continued for 2 weeks. […] Then, the gel was loaded in renaturing buffer (2.5% Triton X-100), followed by incubation at room temperature for 30 minutes. The gel was loaded in developing buffer (50 mM Tris-HCl, pH 8.5, 0.2 M NaCl, 5 mM CaCl2, 0.02% Brii35), which stood at 37° C. for 24 hours. […] At this time, the clear band on the zymogram gel indicated gelatinase activity.

[3] = tested on: MMP-12; test: MMP-12 expression by RT-PCR in spinal cord tissue after spinal cord injury; format: in vivo; details: mouse treated with fluoxetine (200 mg/kg i.p. once a day) after spinal cord injury vs saline
Description: (§2) Adult male C57BL/6 mice (20˜30 g) were anaesthetized with chloral hydrate (500 mg/kg) and T8˜T10 were exposed. The exposed T9 was subjected to contusion injury (by dropping a weight at the impact strength of 40 kd) using PSI (Precision Systems and Instrumentation) impactor. After confirming that a certain damage was given within the error range based on the data of injury level, the incision sites were sealed. After disinfecting the incision sites, the mice were raised in cages (2 mice/cage). Urination was induced by massaging the bladder three times a day. […] Louis, Mo.) dissolved in saline was immediately administered into injured mice via intraperitoneal injection (200 mg/kg). Saline was administered for the control. The administration was performed once a day and continued for 2 weeks. […] Spinal nerve was cut, followed by embedding in OCT compound, which was sectioned by using a cryostat. The spinal cord tissue for the extraction of RNA and protein proceeded to perfusion with PBS. Then, the spinal cord tissue was cut 0.8 cm from the injured area, which was stored in liquid nitrogen at −80° C. until use. RNA was extracted by using TRIZOL Reagent (Invitrogen) according to manufacturer's manual. Total reaction mixture (20 μl) containing 1 μg of RNA was prepared, followed by RT-PCR using MMLV reverse transcriptase (Invitrogen). […]

[4] = maximal electroshock convulsion test in mouse; Leander 1992; cited from earlier work
[5] = tested on: neutrophils; test: Neutrophil infiltration into spinal cord by flow cytometry; format: in vivo, mouse; details: flow cytometry (high CD45 and Gr-1), 1 and 5 days after spinal cord injury, vs saline
Description: (§3) Adult male C57BL/6 mice (20˜30 g) were anaesthetized with chloral hydrate (500 mg/kg) and T8˜T10 were exposed. The exposed T9 was subjected to contusion injury (by dropping a weight at the impact strength of 40 kd) using PSI (Precision Systems and Instrumentation) impactor. After confirming that a certain damage was given within the error range based on the data of injury level, the incision sites were sealed. After disinfecting the incision sites, the mice were raised in cages (2 mice/cage). Urination was induced by massaging the bladder three times a day. […] Louis, Mo.) dissolved in saline was immediately administered into injured mice via intraperitoneal injection (200 mg/kg). Saline was administered for the control. The administration was performed once a day and continued for 2 weeks. The spinal cord tissue was extracted 1 and 5 days after spinal cord injury, which was added into PBS. The spinal cord tissue in PBS was mechanically disrupted with a dounce homogenizer, followed by centrifugation at 1,100 rpm for 10 minutes. The obtained pellet was resuspended in FBS containing buffer, which was centrifuged at 3,000 rpm for 7 minutes. […] After washing with FBS containing buffer, neutrophils and macrophages infiltrated into spinal cord 1 and 5 days after spinal cord injury were measured by using Becton Dickinson LSR Benchtop Flow Cytometer (BD Biosciences). […]

[6] = tested on: CCL-4; test: CCL-4 chemoattractant expression by RT-PCR after spinal cord injury; format: in vivo, mouse; details: 1~5 days after spinal cord injury
Description: (§4) Adult male C57BL/6 mice (20˜30 g) were anaesthetized with chloral hydrate (500 mg/kg) and T8˜T10 were exposed. The exposed T9 was subjected to contusion injury (by dropping a weight at the impact strength of 40 kd) using PSI (Precision Systems and Instrumentation) impactor. After confirming that a certain damage was given within the error range based on the data of injury level, the incision sites were sealed. After disinfecting the incision sites, the mice were raised in cages (2 mice/cage). Urination was induced by massaging the bladder three times a day. […] Louis, Mo.) dissolved in saline was immediately administered into injured mice via intraperitoneal injection (200 mg/kg). Saline was administered for the control. The administration was performed once a day and continued for 2 weeks. RNA was extracted by using TRIZOL Reagent (Invitrogen) according to manufacturer's manual. Total reaction mixture (20 μl) containing 1 μg of RNA was prepared, followed by RT-PCR using MMLV reverse transcriptase (Invitrogen).

[7] = tested on: macrophages; test: Macrophage infiltration into spinal cord by flow cytometry; format: in vivo, mouse; details: flow cytometry (high CD45 and CD11b), 1 and 5 days after spinal cord injury, vs saline
Description: as §3

[8] = tested on: CCL-3; test: CCL-3 chemoattractant expression by RT-PCR after spinal cord injury; format: in vivo, mouse; details: 1~5 days after spinal cord injury
Description: as §4

[9] = tested on: spinal cord injury mouse; test: Animal behavioral test (BBB test), recovery of exercise function after spinal cord injury; format: in vivo
Description: Adult male C57BL/6 mice (20˜30 g) were anaesthetized with chloral hydrate (500 mg/kg) and T8˜T10 were exposed. The exposed T9 was subjected to contusion injury (by dropping a weight at the impact strength of 40 kd) using PSI (Precision Systems and Instrumentation) impactor. After confirming that a certain damage was given within the error range based on the data of injury level, the incision sites were sealed. After disinfecting the incision sites, the mice were raised in cages (2 mice/cage). Urination was induced by massaging the bladder three times a day. […] Louis, Mo.) dissolved in saline was immediately administered into injured mice via intraperitoneal injection (200 mg/kg). Saline was administered for the control. The administration was performed once a day and continued for 2 weeks. BBB test is the method to evaluate the recovery of various nerve fascicles controlling exercise function in combination, in which scores are recorded from 0 to 21. […] A normal mouse got 21 scores for that. So, the exercise function is regarded to be improved as the score got higher. […] The mice were let go freely in the box so as for the mice to be adapted to the experimental environment. […] The average of BBB test scores obtained from those five trained experimenters was considered as the final BBB score for the mouse. To eliminate personal prejudice on the test animal, the experimenters were not given any information on the mice. They only observed the mice 4 minutes every time to give scores.

[10] = tested on: ZO-1; test: ZO-1 immunohistochemical staining of spinal cord sections after spinal cord injury; format: in vivo, mouse; details: tissue sections after spinal cord injury, vs saline
Description: Adult male C57BL/6 mice (20˜30 g) were anaesthetized with chloral hydrate (500 mg/kg) and T8˜T10 were exposed. The exposed T9 was subjected to contusion injury (by dropping a weight at the impact strength of 40 kd) using PSI (Precision Systems and Instrumentation) impactor. After confirming that a certain damage was given within the error range based on the data of injury level, the incision sites were sealed. After disinfecting the incision sites, the mice were raised in cages (2 mice/cage). Urination was induced by massaging the bladder three times a day. […] Louis, Mo.) dissolved in saline was immediately administered into injured mice via intraperitoneal injection (200 mg/kg). Saline was administered for the control. The administration was performed once a day and continued for 2 weeks. […] Spinal nerve was cut, followed by embedding in OCT compound, which was sectioned by using a cryostat. […] 10 μm tissue sections were reacted under the condition proposed in each primary antibody manual, followed by color development by using secondary antibodies. For immunofluorescence staining, secondary antibodies of Jackson were used. For DAB color development, Vectastatin kit (Vector) was used.

[11] = tested on: MMP-2; test: MMP-2 expression by RT-PCR in spinal cord tissue after spinal cord injury; format: in vivo; details: mouse treated with fluoxetine (200 mg/kg i.p. once a day) after spinal cord injury vs saline
Description: as §2

[12] = tested on: ZO-1; test: ZO-1 (tight junction protein) amount by western blot after spinal cord injury; format: in vivo, mouse; details: vs saline
Description: Adult male C57BL/6 mice (20˜30 g) were anaesthetized with chloral hydrate (500 mg/kg) and T8˜T10 were exposed. The exposed T9 was subjected to contusion injury (by dropping a weight at the impact strength of 40 kd) using PSI (Precision Systems and Instrumentation) impactor. After confirming that a certain damage was given within the error range based on the data of injury level, the incision sites were sealed. After disinfecting the incision sites, the mice were raised in cages (2 mice/cage). Urination was induced by massaging the bladder three times a day. […] Louis, Mo.) dissolved in saline was immediately administered into injured mice via intraperitoneal injection (200 mg/kg). Saline was administered for the control. The administration was performed once a day and continued for 2 weeks. […] The protein was transferred onto nitrocellulose membrane, followed by western blot according to the protocol described in each antibody data sheet.

[13] = tested on: MMP-9; test: MMP-9 activation by gelatin zymography of spinal cord tissue after spinal cord injury; format: in vivo, mouse; details: spinal cord tissue 1 day (peak time) after spinal cord injury, vs saline
Description: as §1

[14] = tested on: MMP-9; test: MMP-9 expression by RT-PCR in spinal cord tissue after spinal cord injury; format: in vivo; details: mouse treated with fluoxetine (200 mg/kg i.p. once a day) after spinal cord injury vs saline
Description: as §2

Row | SMILES | neurotoxic effect of Aβ [1] | MMP-2 activity (gelatinase activity) [2] | expression of MMP-12 [3] | anticonvulsant effects of carbamazepine, phenytoin, and ameltolide [4] | number of neutrophils in spinal cord tissues [5] | expression of CCL-4 [6] | number of macrophages in spinal cord tissues [7] | expression of CCL-3 [8] | crossing frequency of forelegs and hind legs during walking ([9]; 672 h) | BBB points, course ([9]; from 1 week after spinal cord injury, compared with saline only) | BBB point ([9]; ip, 200 mg/kg) | ZO-1 (immunohistochemical staining) [10] | expression of MMP-2 [11] | amount of ZO-1 [12] | MMP-9 activity (gelatinase activity) [13] | expression of MMP-9 [14]
1 | C[C@]12N[C@H](Cc3ccccc31)c1ccccc12 [MK-801] | inhibited |  |  |  |  |  |  |  |  |  |  |  |  |  |  | 
2 | CNCCC(Oc1ccc(C(F)(F)F)cc1)c1ccccc1 (stereo not shown) [fluoxetine] |  | significantly reduced | significantly reduced | increased | significantly reduced | suppressed | significantly reduced | suppressed | approximately 50% | began to increase | 10.2±0.92 | hardly reduced | significantly reduced | not reduced | significantly reduced | significantly reduced
